Experiment: Solubility in water and solvents
Format: physicochemical
Details: for Solubilités : éthanol: ethanol; for Solubilités : propylène glycol: propylene glycol; for Solubilités : eau: result in words

Solubilités : diméthyl sulfoxyde (DMSO) | Solubilités : éthanol | Solubilités : propylène glycol | Solubilités : eau (water) | Solubilités : DMA (DMA) [%] | solubility (water, read-out: Solubilités : eau) [mg/mL] | Compound
20% | 5% | 1% | insoluble | – | – | CCOC(=O)c1ccc(-c2ccccc2Cl)cc1 [Exemple 1, chloro-2' biphényl-4 carboxylate d'éthyle]
0,1% | 0,5% | 0,1% | insoluble | 1 | – | CCCCCCCCCCCCCCCCOC(=O)c1ccc(-c2ccccc2Cl)cc1 [Exemple 4, chloro-2' biphényl-4 carboxylate de n-hexadecyle]
20% | 2% | 0,2% | Insoluble | – | – | O=C(OCc1ccccc1)c1ccc(-c2ccccc2Cl)cc1 [Exemple 6, chloro-2' biphényl-4 carboxylate de benzyle]
12% | – | – | – | – | 100 | CN(C)CCOC(=O)c1ccc(-c2ccccc2Cl)cc1 [Exemple 9, chloro-2' biphényl-4 carboxylate de diméthylamino-2 éthyle, chlorhydrate]
20% | 2% | 0,1% | insoluble | – | – | CC1CC(OC(=O)c2ccc(-c3ccccc3Cl)cc2)CC(C)(C)C1 (stereo not drawn) [Exemple 5, chloro-2^1 biphényl-4 carboxylatede triméthyl-3-3-5 clohexyle]
12% | – | 0,1% | insoluble | – | – | O=C(OCc1cccnc1)c1ccc(-c2ccccc2Cl)cc1 [Exemple 10, chloro-2' biphényl-4 carboxylate de pyridyl-3 méthyle, chlorhydrate]
20% | 5% | 0,1% | insoluble | – | – | CCCCCCCCOC(=O)c1ccc(-c2ccccc2Cl)cc1 [Exemple 3, chloro-2' biphényl-4 carboxylate de n-octyle]
10% | 2% | 1% | insoluble | – | – | CC(C)OC(=O)c1ccc(-c2ccccc2Cl)cc1 [Exemple 2, chloro-2' biphényl-4 carboxylate d'isopropyle]
